Measured values reported in patent US20190256499A1, “SUBSTITUTED QUINOXALINE DERIVATIVES AS INHIBITORS OF PFKFB” (priority 2016, published 2019).
Converted amounts (≈) assume the structure as drawn.

Key:
[1] = Microsomal stability (intrinsic clearance), mouse liver microsomes; assay type: in vitro ADME; design: microsomal CLint: dose or concentration left out as unconfirmed; settings: mouse, liver microsomes, pH 7.4, mouse liver microsomes
Excerpt: A microsomal stability assay is used to measure in vitro clearance (Clint). The assay involves measuring the rate of disappearance of a compound due to its intrinsic attitude to be metabolized (“intrinsic” meaning that the disappearance is not affected by other properties like permeability, binding etc. that play a role when quantifying in vivo clearance). The microsomal stability (intrinsic clearance, Clint) and thus metabolic stability is generally given as μl/min/mg protein. It can be visualized as the volume of solution that 1 mg of microsomes is able to clear of the compound in one minute.
A Tecan Genesis workstation (RSP 150/8) was used for to perform the microsomal incubations. Analysis was carried out using a Waters ACQUITY UPLC system coupled to an ABSciex API3000 mass spectrometer. Data analysis was performed using Assay Explorer (Symyx).
Mobile phases: A=0.1% formic acid in water; B=acetonitrile
Flow rate: 0.750 mL/min; Detection: ESI, MRM; Injection: 10 μL; Column temperature: 50° C.
Potassium phosphate buffer: 0.05 M potassium phosphate buffer pH 7.4 containing 1 mM MgCl2 NADPH (nicotinamide adenine dinucleotide phosphate): 22.5 mg NADPH-Na4 in 1.8 ml potassium phosphate buffer Acetonitrile: 50 Vol % acetonitrile (1 volume acetonitrile, 1 volume water) DMSO: 20 Vol % DMSO in water Stock solution of 20 mg/ml human or mouse liver microsomes (protein)/ml in phosphate buffer Stock solution of 10 mM compound in 100% DMSO

Kinetic solubility = assay type: physicochemical; settings: phosphate buffer, pH 7.4, aqueous buffer, kinetic from dmso stock, phosphate buffer 20 mM pH 7.4, 2% DMSO, room temperature
Protocol: Kinetic solubility of compounds of the present invention were tested according the following procedure.
(a) Buffer Solution Phosphate Buffer 20 mM pH 7.4 is prepared using Sorensen Phosphate Buffer 0.2 M pH 7.4 (EMS) in a 1000 mL volumetric flask (b) 2% DMSO in Phosphate Buffer 20 mM pH 7.4 is prepared by using 1 mL Dimethylsulfoxide (Merck) and 49 ml Sorensen Phosphate Buffer 20 mM pH 7.4 (c) Acetonitrile/Methanole/Eluent A (1:1:2; v/v/v) is prepared by using 50 mL Acetonitrile (Merck), 50 mL Methanol (Merck) and 100 mL Eluent A (d) Eluent A is prepared by using 1 mL Formic Acid (Merck) and 999 mL Ultrapure water (e) Eluent B is prepared by using 1 mL Formic Acid (Merck) and 999 mL Acetonitrile (Merck) (f) Filtration plate: Millipore MultiScreen HTS HV (0.45 μm) 96 Well (Millipore)
98 μL buffer solution (a) is added into a well of a 96 well filtration plate (f). Then 2 μL of 10 mM test compound solution in DMSO (Remp tube) is added. The filtration plate is incubated at room temperature for 120 minutes while agitating at 250 rpm and centrifuged with the PP-Plate (g) as receiver plate below (2500 rpm, 3 min). The 50 μL of filtrate is taken from the receiver plate and mixed with 50 μL of 2% DMSO in buffer pH 7.4 solution (b) (dilution factor=2) in a HPLC Vial (i)+(j).
Standard is prepared by diluting 2 μL of the same 10 mM test compound solution (Remp tube) diluted with 198 μL Acetonitrile/Methanole/Eluent A (1:1:2; v/v/v) (c) to prepare a 100 μM standard solution in a HPLC Vial (i)+(j).
Column temperature: 37° C. Autosampler: room temperature (approx. 25° C.) Gradient programme: […]
Injection volume: 10 μL Wavelength: Suitable wavelength (maximum sensitivity) selected out of wavelength range of 190-400 nm using a DAD detector.
L [μg/mL]=(area sample*concentration standard*dilution factor sample)/(area standard*dilution factor standard)
S [mol/L]=[…] Calculation: […]

Cn1ccc2ccc(-c3cc(NC(c4cccnc4)c4ccc(=O)[nH]n4)cc4nccnc34)cc21 (single isomer, unassigned) [Example 2]
microsomal CLint [1]: 101 µL/min/mg | solubility kinetic at 120 min (Kinetic solubility): 61 µM (≈ 28 µg/mL)

COc1ccc([C@@H](Nc2cc(-c3ccc4ccn(C)c4c3)c3nccnc3c2)c2cccnc2)nn1 (single isomer, unassigned) [Example 5]
microsomal CLint [1]: 154 µL/min/mg | solubility kinetic at 120 min (Kinetic solubility): 20 µM (≈ 9.47 µg/mL)

Cn1cc([C@H](Nc2cc(-c3ccc4ccn(C)c4c3)c3nccnc3c2)c2cnnn2C)cn1 (single isomer, unassigned) [Example 8]
microsomal CLint [1]: 29 µL/min/mg | solubility kinetic at 120 min (Kinetic solubility): 110 µM (≈ 49.4 µg/mL)

Cn1cc([C@H](Nc2cc(-c3ccc4ccn(C)c4c3)c3nccnc3c2)c2cncn2C)cn1 (single isomer, unassigned) [Example 11]
microsomal CLint [1]: 105 µL/min/mg | solubility kinetic at 120 min (Kinetic solubility): 100 µM (≈ 44.9 µg/mL)

COc1ccc([C@@H](Nc2cc(-c3ccc4ccn(C)c4c3)c3nccnc3c2)c2cccnc2)cn1 [Comparative Example 4, [(S)-(6-methoxy-pyridin-3-yl)-pyridin-3-yl-methyl]-[8-(1-methyl-1H-indol-6-yl)-quinoxalin-6-yl]-amine, reference compound]
microsomal CLint [1]: 291 µL/min/mg | solubility kinetic at 120 min (Kinetic solubility): 3.7 µM (≈ 1.75 µg/mL)
